The values that follow come from patent US12473295B2, “Substituted straight chain spiro derivatives” (Janssen Pharmaceutica NV, priority 2019, dated 2025).

Where a name gives a salt, the structure may show the parent alone.

The test system of one experiment is MEIS1 mRNA. In words: MEIS1 mRNA expression assay (Quantigene Singleplex) in MOLM14 cells.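 Also: MEIS1 transcript levels read by probe hybridization and normalized to RPL28 mRNA, with IC50 fitted to fold changes across a rising compound concentration series.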 The experiment is classed as cell-based, human. Particulars: Homo sapiens, MOLM-14, 48 h, 48 hours incubation.
The target in experiment [1] is menin/MLL (terbium chelate-labeled menin, FITC-MBM1 peptide) (Homo sapiens (Human), UniProt O00255). The experiment in a line: Menin/MLL homogenous time-resolved fluorescence (HTRF) assay.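 Also: IC50 from percent inhibition of HTRF signal, normalized between wells without competitor and wells with a saturating competitor that displaces FITC-MBM1 from His-tagged menin.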 In kind it is binding. Particulars: HTRF-30 min incubation IC50, 30 min incubation.
Chain of menin/MLL (terbium chelate-labeled menin, FITC-MBM1 peptide) (O00255 other isoform, or with tags, fused parts or gaps): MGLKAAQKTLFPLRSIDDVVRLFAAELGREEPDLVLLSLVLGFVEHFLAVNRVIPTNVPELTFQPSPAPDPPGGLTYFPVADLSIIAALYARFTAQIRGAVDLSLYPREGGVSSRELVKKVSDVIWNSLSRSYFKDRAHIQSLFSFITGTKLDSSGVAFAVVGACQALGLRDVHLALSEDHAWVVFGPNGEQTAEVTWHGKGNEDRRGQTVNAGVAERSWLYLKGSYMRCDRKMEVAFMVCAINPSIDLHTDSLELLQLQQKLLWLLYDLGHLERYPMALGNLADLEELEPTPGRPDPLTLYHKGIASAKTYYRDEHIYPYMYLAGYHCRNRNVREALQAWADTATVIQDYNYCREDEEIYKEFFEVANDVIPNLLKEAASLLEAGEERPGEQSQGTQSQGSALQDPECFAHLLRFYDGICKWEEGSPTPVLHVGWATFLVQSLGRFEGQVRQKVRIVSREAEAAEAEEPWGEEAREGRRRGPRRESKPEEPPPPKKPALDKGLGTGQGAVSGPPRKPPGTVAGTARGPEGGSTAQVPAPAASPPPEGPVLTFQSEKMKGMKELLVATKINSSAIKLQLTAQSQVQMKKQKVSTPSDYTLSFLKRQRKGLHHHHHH
In the next experiment the test system is MOLM14 cells. In words: Proliferation assay (spheroid growth, 8 days), MOLM14.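 Also: spheroid size read as confluence by live-cell imaging, compounds added at a range of concentrations with 0.3% DMSO, DMSO-treated wells = 0%, highest reference dose = low control.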 In kind it is cell-based, human. The settings on record: Homo sapiens, MOLM-14, […], MOLM14, 8 days; read-out: spheroid assay_OneTime MOLM14 IC50.
In the next experiment the test system is KO-52 cells. In words: Proliferation assay (spheroid growth, 8 days), KO-52 control cell line. The experiment is classed as cell-based, human. Particulars: Homo sapiens, […], read-out: spheroid assay_OneTime KO-52 IC50. In outline: (§1)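 200 MOLM14 (MLL-AF9), 200 OCI-AML3 (NPM1c) or 300 KO-52 (MLL wildtype) cells were grown as spheroids in ultra-low attachment wells with compound, 0.3% DMSO, for 8 days at 37 °C. Confluence was imaged on day 8, normalized to DMSO and top-dose reference compound. IC50 came from a variable-slope fit constrained 0–100%.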

Another experiment deals with OCI-AML3 cells. The experiment in a line: Proliferation assay (spheroid growth, 8 days), OCI-AML3. The experiment is classed as cell-based, human. Particulars: Homo sapiens, OCI-AML-3, […], OCI-AML3, 8 days. In outline: as §1

Take `CCN(C(=O)c1cc(F)ccc1Oc1nncnc1N1CCC2(C1)CN([C@H](CCCN(C)[C@H](C)CC(=O)NC)C(C)C)C2)C(C)C` [Compound 191, N-ethyl-5-fluoro-N-isopropyl-2-((5-(2-((R)-2-methyl-6-(methyl((R)-4-(methylamino)-4-oxobutan-2-yl)amino)hexan-3-yl)-2,6-diazaspiro[3.4]octan-6-yl)-1,2,4-triazin-6-yl)oxy)benzamide fumarate]: the IC50 (as a rule, the concentration at which inhibition is half-maximal) in the experiment on MEIS1 mRNA is 220 nM; in experiment [1], 0.28 nM; with MOLM14 cells, 280 nM; in the experiment on KO-52 cells, > 15000 nM; with OCI-AML3 cells, 560 nM.

As for `CCN(C(=O)c1cc(F)ccc1Oc1nncnc1N1CCC2(C1)CN([C@H](CCCNCC(C)(C)OC)C(C)C)C2)C(C)C` [Compound 135, (R)-N-ethyl-5-fluoro-N-isopropyl-2-((5-(2-(6-((2-methoxy-2-methylpropyl)amino)-2-methylhexan-3-yl)-2,6-diazaspiro[3.4]octan-6-yl)-1,2,4-triazin-6-yl)oxy)benzamide fumarate], the IC50 in the experiment with MEIS1 mRNA is 16 nM; in experiment [1] it was 0.057 nM; in the experiment with MOLM14 cells it was 13 nM; in the experiment on KO-52 cells, 9690 nM; in the experiment with OCI-AML3 cells it was 230 nM.

Regarding `CC(C)[C@@H](CCC(N)=O)N1CC2(CCN(c3ncnnc3Oc3ccc(F)cc3-c3cncnc3C3CC3)C2)C1` (single isomer, unassigned) [Compound 43, (*R)-4-(6-(6-(2-(4-cyclopropylpyrimidin-5-yl)-4-fluorophenoxy)-1,2,4-triazin-5-yl)-2,6-diazaspiro[3.4]octan-2-yl)-5-methylhexanamido], the IC50 in the experiment with MEIS1 mRNA is ~240 nM; in experiment [1], 0.55 nM; with MOLM14 cells it was 290 nM; in the experiment with KO-52 cells, > 15000 nM; with OCI-AML3 cells it was 1200 nM.

With `CCN(C)C[C@@H](O)C[C@H](C(C)C)N1CC2(CCN(c3ncnnc3Oc3ccc(F)cc3C(=O)N(C(C)C)C(C)C)C2)C1` (single isomer, unassigned) [Compound 391, 2-((5-(2-((3*R,5*S)-6-(ethyl(methyl)amino)-5-hydroxy-2-methylhexan-3-yl)-2,6-diazaspiro[3.4]octan-6-yl)-1,2,4-triazin-6-yl)oxy)-5-fluoro-N,N-diisopropylbenzamide fumarate], the IC50 with MEIS1 mRNA was 160 nM; in experiment [1], 0.9 nM; in the experiment on MOLM14 cells, 490 nM; in the experiment with KO-52 cells, > 15000 nM; in the experiment on OCI-AML3 cells, 2100 nM.

With `CC(C)[C@@H](C[C@@H](O)CN(C)C)N1CC2(CCN(c3ncnnc3Oc3ccc(F)cc3C(=O)N(C(C)C)C(C)C)C2)C1` (single isomer, unassigned) [Compound 365, 2-((5-(2-((3*R,5*R)-6-(dimethylamino)-5-hydroxy-2-methylhexan-3-yl)-2,6-diazaspiro[3.4]octan-6-yl)-1,2,4-triazin-6-yl)oxy)-5-fluoro-N,N-diisopropylbenzamide fumarate], the IC50 in the experiment with MEIS1 mRNA was 10 nM; in experiment [1] it was 0.097 nM; with MOLM14 cells, 11 nM; with KO-52 cells, > 15000 nM; in the experiment with OCI-AML3 cells it was 37 nM.

As for `CCN(C(=O)c1cc(F)ccc1Oc1nncnc1N1CCC2(C1)CN([C@H](CCCN(C)CC(C)(C)OC)C(C)C)C2)C(C)C` [Compound 137, (R)-N-ethyl-5-fluoro-N-isopropyl-2-((5-(2-(6-((2-methoxy-2-methylpropyl)(methyl)amino)-2-methylhexan-3-yl)-2,6-diazaspiro[3.4]octan-6-yl)-1,2,4-triazin-6-yl)oxy)benzamide fumarate], the IC50 in the experiment with MEIS1 mRNA was 25 nM; in experiment [1], 0.18 nM; in the experiment on MOLM14 cells, 45 nM; with KO-52 cells, 7290 nM; in the experiment with OCI-AML3 cells it was 160 nM.

Regarding `CCCN(C)CCC[C@H](C(C)C)N1CC2(CCN(c3ncnnc3Oc3ccc(F)cc3C(=O)N(CC)C(C)C)C2)C1` (single isomer, unassigned) [Compound 127, (*R)—N-ethyl-5-fluoro-N-isopropyl-2-((2-methyl-6-(methyl(propyl)amino)hexan-3-yl)-2,6-diazaspiro[3.4]octan-6-yl)-1,2,4-triazin-6-yl)oxy)benzamide fumarate], the IC50 turned out to be 44 nM in the experiment with MEIS1 mRNA; 0.089 nM in experiment [1]; 26 nM with MOLM14 cells; 11300 nM in the experiment on KO-52 cells; 140 nM in the experiment on OCI-AML3 cells.

Take `CCN(C(=O)c1cc(F)ccc1Oc1nncnc1N1CCC2(C1)CN([C@H](CCCN[C@@H](CO)COC)C(C)C)C2)C(C)C` [Compound 163, N-ethyl-5-fluoro-2-((5-(2-((R)-6-(((S)-1-hydroxy-3-methoxypropan-2-yl)amino)-2-methylhexan-3-yl)-2,6-diazaspiro[3.4]octan-6-yl)-1,2,4-triazin-6-yl)oxy)-N-isopropylbenzamide]: the IC50 with MEIS1 mRNA was 20 nM; in experiment [1], 0.089 nM; with MOLM14 cells, 18 nM; in the experiment on KO-52 cells, > 15000 nM; in the experiment on OCI-AML3 cells, 120 nM.

Take `CCN(CC)C[C@H](O)C[C@@H](C(C)C)N1CC2(CCN(c3ncnnc3Oc3ccc(F)cc3C(=O)N(CC)C(C)C)C2)C1` (single isomer, unassigned) [Compound 336, 2-((5-(2-((3*S,5*R)-6-(diethylamino)-5-hydroxy-2-methylhexan-3-yl)-2,6-diazaspiro[3.4]octan-6-yl)-1,2,4-triazin-6-yl)oxy)-N-ethyl-5-fluoro-N-isopropylbenzamide fumarate]: the IC50 was 61 nM in the experiment on MEIS1 mRNA; 0.21 nM in experiment [1]; 70 nM in the experiment with MOLM14 cells; > 15000 nM in the experiment with KO-52 cells; 870 nM with OCI-AML3 cells.

Turning to `CCN(C(=O)c1cc(F)ccc1Oc1nncnc1N1CCC2(C1)CN([C@H](CCCN(C)C(C)CC(=O)N(C)C)C(C)C)C2)C(C)C` (stereo partly drawn) [Compound 179, fumarate], the IC50 with MEIS1 mRNA was 27 nM; in experiment [1], 0.13 nM; in the experiment with MOLM14 cells, 33 nM; with KO-52 cells, > 15000 nM; with OCI-AML3 cells, 59 nM.

Turning to `CCN(C(=O)c1cc(F)ccc1Oc1nncnc1N1CCC2(C1)CN([C@H](C[C@@H](O)CN(C)C(C)C)C(C)C)C2)C(C)C` (single isomer, unassigned) [Compound 323, N-ethyl-5-fluoro-2-((5-(2-((3*R,5*R)-5-hydroxy-6-(isopropyl(methyl)amino)-2-methylhexan-3-yl)-2,6-diazaspiro[3.4]octan-6-yl)-1,2,4-triazin-6-yl)oxy)-N-isopropylbenzamide fumarate], the IC50 in the experiment with MEIS1 mRNA was determined as 62 nM; in experiment [1] it was 0.49 nM; in the experiment with MOLM14 cells, 110 nM; in the experiment with KO-52 cells, 13400 nM; in the experiment on OCI-AML3 cells, 170 nM.

Consider `CCN(C(=O)c1cc(F)ccc1Oc1nncnc1N1CCC2(C1)CN([C@H](CCCN(C)CCCC(=O)N(C)C)C(C)C)C2)C(C)C` [Compound 152, (R)-2-((5-(2-(6-((4-(dimethylamino)-4-oxobutyl)(methyl)amino)-2-methylhexan-3-yl)-2,6-diazaspiro[3.4]octan-6-yl)-1,2,4-triazin-6-yl)oxy)-N-ethyl-5-fluoro-N-isopropylbenzamide fumarate], for which the IC50 is 87 nM in the experiment on MEIS1 mRNA; 0.19 nM in experiment [1]; 37 nM with MOLM14 cells; > 15000 nM in the experiment with KO-52 cells; 350 nM in the experiment on OCI-AML3 cells.

On to `CC(C)[C@@H](CCCN(C)C[C@@H](C)C(N)=O)N1CC2(CCN(c3ncnnc3Oc3ccc(F)cc3C(=O)N(C(C)C)C(C)C)C2)C1` (single isomer, unassigned) [Compound 203, 2-((5-(2-((*R)-6-(((S)-3-amino-2-methyl-3-oxopropyl)(methyl)amino)-2-methylhexan-3-yl)-2,6-diazaspiro[3.4]octan-6-yl)-1,2,4-triazin-6-yl)oxy)-5-fluoro-N,N-diisopropylbenzamide fumarate], for which the concentration for half-maximal inhibition (IC50) with MEIS1 mRNA is 42 nM; in experiment [1] it was 0.3 nM; in the experiment with MOLM14 cells it was 38 nM; with KO-52 cells it was > 15000 nM; in the experiment on OCI-AML3 cells, 75 nM.

`CCN(C(=O)c1cc(F)ccc1Oc1nncnc1N1CCC2(C1)CN([C@H](CCCN(C)C(CO)CO)C(C)C)C2)C(C)C` [Compound 256, (R)-2-((5(2-(6-((1,3-dihydroxypropan-2-yl)(methyl)amino)-2-methylhexan-3-yl)-2,6-diazaspiro[3.4]octan-6-yl)-1,2,4-triazin-6-yl)oxy)-N-ethyl-5-fluoro-N-isopropylbenzamide fumarate]: the IC50 is 130 nM with MEIS1 mRNA; 0.15 nM in experiment [1]; 84 nM in the experiment with MOLM14 cells; > 15000 nM with KO-52 cells; 360 nM with OCI-AML3 cells.

Turning to `CCN(C(=O)c1cc(F)ccc1Oc1nncnc1N1CCC2(C1)CN([C@H](CCCN(C)C[C@H](COC)OC)C(C)C)C2)C(C)C` (single isomer, unassigned) [Compound 176, 2-((5-(2-((R)-6-(((*R)-2,3-dimethoxypropyl)(methyl)amino)-2-methylhexan-3-yl)-2,6-diazaspiro[3.4]octan-6-yl)-1,2,4-triazin-6-yl)oxy)-N-ethyl-5-fluoro-N-isopropylbenzamide fumarate], the half-inhibitory concentration (IC50) with MEIS1 mRNA was 17 nM; in experiment [1], 0.13 nM; in the experiment with MOLM14 cells it was 38 nM; with KO-52 cells it was > 15000 nM; in the experiment with OCI-AML3 cells, 120 nM.
